Assay results taken from patent publication US11304929B2, “Tosylacetate based compounds and derivatives thereof as PHGDH inhibitors” (priority 2017, dated 2022).
pIC50: −log10 of the molar value.

Biological target: PHGDH (Homo sapiens (Human), UniProt O43175)
Test: 3-Phosphoglycerate Dehydrogenase (PHGDH) Fluorescence Intensity Assay, run at two NAD/3-PG ratios: PHGDH_HIGH_NAD/3-PG (250 μM NAD/500 μM 3-PG) and PHGDH_500_NAD/3-PG (500 μM NAD/500 μM 3-PG)
Format: biochemical
Conditions: 250 μM NAD/500 μM 3-PG; read-out: IC50 (PHGDH_HIGH_NAD/3-PG)

Chain of PHGDH (O43175 2-533 limits assumed): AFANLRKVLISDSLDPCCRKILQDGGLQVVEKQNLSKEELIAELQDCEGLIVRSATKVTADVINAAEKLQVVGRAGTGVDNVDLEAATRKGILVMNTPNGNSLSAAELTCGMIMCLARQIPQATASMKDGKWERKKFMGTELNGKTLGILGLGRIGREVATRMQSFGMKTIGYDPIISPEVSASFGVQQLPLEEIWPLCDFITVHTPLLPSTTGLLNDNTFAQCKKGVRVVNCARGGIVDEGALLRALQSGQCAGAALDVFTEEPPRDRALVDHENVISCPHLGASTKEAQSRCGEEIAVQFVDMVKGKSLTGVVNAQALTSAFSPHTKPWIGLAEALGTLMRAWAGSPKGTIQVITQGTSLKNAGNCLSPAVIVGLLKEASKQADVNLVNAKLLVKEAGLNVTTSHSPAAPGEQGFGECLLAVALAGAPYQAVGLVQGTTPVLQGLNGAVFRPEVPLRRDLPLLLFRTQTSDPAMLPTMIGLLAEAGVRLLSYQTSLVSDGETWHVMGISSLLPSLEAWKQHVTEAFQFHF

`C#Cc1cc(Cl)c2cc(C(=O)NC(C)c3ccc(S(=O)(=O)CC(=O)OC)cc3)n(C)c2c1` (centres unmarked) [Example 01-008, methyl 2-(4-{1-[(4-chloro-6-ethynyl-1-methyl-1H-indol-2-yl)formamido]ethyl}benzenesulfonyl)acetate] and `COC(=O)CS(=O)(=O)c1ccc(C(C)NC(=O)c2cc3c(Cl)cc(I)cc3n2C)cc1` (centres unmarked) [Example 01-020, methyl 2-(4-{1-[(4-chloro-6-iodo-1-methyl-1H-indol-2-yl)formamido]ethyl}benzenesulfonyl)acetate] are within 0.2 log units of each other in pIC50: 5.77 for the first, 5.75 for the second.

Compared with `COC(=O)CS(=O)(=O)c1ccc([C@@H](C)NC(=O)c2cc3c4ccccc4c(C)cc3n2C)cc1` [Example 01-010, methyl 2-{4-[(1R)-1-({3,5-dimethyl-3H-benzo[e]indol-2-yl}formamido)ethyl]benzenesulfonyl}acetate], `COC(=O)CS(=O)(=O)c1ccc([C@H](C)NC(=O)c2cc3c(Cl)c(Cl)c(C)cc3n2C)cc1` [Example 01-017, methyl 2-{4-[(1S)-1-[(4,5-dichloro-1,6-dimethyl-1H-indol-2-yl)formamido]ethyl]benzenesulfonyl}acetate] is 0.86 log units lower in pIC50: 6.03 for the first, 5.17 for the second. The first is the more potent here.

`Cc1cc(Cl)c2cc(C(=O)N[C@H](C)c3ccc(S(=O)(=O)CC(=O)OC(C)(C)C)cc3)n(C)c2c1` [Example 01-014, tert-butyl 2-{4-[(1R)-1-[(4-chloro-1,6-dimethyl-1H-indol-2-yl)formamido]ethyl]benzenesulfonyl}acetate] and `Cc1cc(Cl)c2cc(C(=O)N[C@H](C)c3ccc(S(=O)(=O)CC(=O)OC(C)C)cc3)n(C)c2c1` [Example 01-024, propan-2-yl 2-{4-[(1R)-1-[(4-chloro-1,6-dimethyl-1H-indol-2-yl)formamido]ethyl]benzenesulfonyl}acetate] are within 0.2 log units of each other in pIC50: 5.37 for the first, 5.45 for the second.

`COC(=O)CS(=O)(=O)c1ccc([C@@H](C)NC(=O)c2cc3c(Cl)cc(C)c(C)c3n2C)cc1` [Example 01-015, methyl 2-{4-[(1R)-1-[(4-chloro-1,6,7-trimethyl-1H-indol-2-yl)formamido]ethyl]benzenesulfonyl}acetate] and `Cc1cc2c(cc(C(=O)N[C@H](C)c3ccc(S(=O)(=O)CC(=O)O[13CH3])cc3)n2C)c(Cl)c1Cl` [Example 01-022, (^13C)methyl 2-{4-[(1R)-1-[(4,5-dichloro-1,6-dimethyl-1H-indol-2-yl)formamido]ethyl]benzenesulfonyl}acetate] are within 0.2 log units of each other in pIC50: 6.23 for the first, 6.38 for the second.

Going from `COC(=O)CS(=O)(=O)c1ccc([C@@H](C)NC(=O)c2cc3cc(Cl)ccc3n2C)cc1` [Example 01-019, methyl 2-{4-[(1R)-1-[(5-chloro-1-methyl-1H-indol-2-yl)formamido]ethyl]benzenesulfonyl}acetate] to `COC(=O)CS(=O)(=O)c1ccc([C@@H](C)NC(=O)c2cc(-c3ccccc3)nn2C)cc1` [Example 02-002, methyl 2-{4-[(1R)-1-[(1-methyl-3-phenyl-1H-pyrazol-5-yl)formamido]ethyl]benzenesulfonyl}acetate], the pIC50 rises from 5.61 to 5.87 (0.26 log units).

Going from `CCOC(=O)CS(=O)(=O)c1ccc([C@@H](C)NC(=O)c2cc3cc(Cl)c(-c4cnn(CCN5CCOCC5)c4)cc3n2C)cc1` [Example 01-025, ethyl 2-{4-[(1R)-1-[(5-chloro-1-methyl-6-{1-[2-(morpholin-4-yl)ethyl]-1H-pyrazol-4-yl}-1H-indol-2-yl)formamido]ethyl]benzenesulfonyl}acetate] to `CC(C)OC(=O)CS(=O)(=O)c1ccc([C@@H](C)NC(=O)c2cc3c(Cl)cc(N4CCN(C)CC4)cc3n2C)cc1` [Example 01-041, propan-2-yl 2-{4-[(1R)-1-{[4-chloro-1-methyl-6-(4-methylpiperazin-1-yl)-1H-indol-2-yl]formamido}ethyl]benzenesulfonyl}acetate], the pIC50 falls from 6.13 to 5.50 (0.63 log units). The first is the more potent here.

Going from `COC(=O)CS(=O)(=O)c1ccc(CNC(=O)c2cc3c(Cl)cc(C)cc3n2C)cc1` [Example 01-030, methyl 2-(4-{[(4-chloro-1,6-dimethyl-1H-indol-2-yl)formamido]methyl}benzenesulfonyl)acetate] to `CCOC(=O)CS(=O)(=O)c1ccc(CNC(=O)c2cc3c(Cl)cc(C)cc3n2C)cc1` [Example 01-032, ethyl 2-(4-{[(4-chloro-1,6-dimethyl-1H-indol-2-yl)formamido]methyl}benzenesulfonyl)acetate], the pIC50 falls from 5.47 to 5.23 (0.24 log units). The first is the more potent here.

Going from `Cc1cc(Cl)c2cc(C(=O)NCc3ccc(S(=O)(=O)CC(=O)OC(C)C)cc3)n(C)c2c1` [Example 01-031, propan-2-yl 2-(4-{[(4-chloro-1,6-dimethyl-1H-indol-2-yl)formamido]methyl}benzenesulfonyl)acetate] to `Cc1cc(Cl)c2cc(C(=O)N[C@H](CO)c3ccc(S(=O)(=O)CC(=O)OC(C)C)cc3)n(C)c2c1` [Example 01-038, propan-2-yl 2-{4-[(1S)-1-[(4-chloro-1,6-dimethyl-1H-indol-2-yl)formamido]-2-hydroxyethyl]benzenesulfonyl}acetate], the pIC50 rises from less than 4.70 to 6.58. The second is the more potent here.

Compared with `Cc1cc2c(cc(C(=O)N[C@H](C)c3ccc(S(=O)(=O)CC(=O)OC(C)C)cc3)n2C)c(Cl)c1F` [Example 01-033, propan-2-yl 2-{4-[(1R)-1-[(4-chloro-5-fluoro-1,6-dimethyl-1H-indol-2-yl)formamido]ethyl]benzenesulfonyl}acetate], `Cc1cc2c(cc(C(=O)N[C@H](C)c3ccc(S(=O)(=O)CC(=O)OC(C)C)cc3)n2C)c(Cl)c1Cl` [Example 01-037, propan-2-yl 2-{4-[(1R)-1-[(4,5-dichloro-1,6-dimethyl-1H-indol-2-yl)formamido]ethyl]benzenesulfonyl}acetate] is 1.03 log units higher in pIC50: 4.44 for the first, 5.47 for the second.

Going from `Cc1cc(Cl)c2cc(C(=O)N[C@H](CO)c3ccc(S(=O)(=O)CC(=O)OC(C)C)cc3)n(C)c2n1` [Example 01-034, propan-2-yl 2-{4-[(1S)-1-({4-chloro-1,6-dimethyl-1H-pyrrolo[2,3-b]pyridin-2-yl}formamido)-2-hydroxyethyl]benzenesulfonyl}acetate] to `Cc1cc(Cl)c2cc(C(=O)N[C@H](C)c3ccc(S(=O)(=O)CC(=O)OC(C)C)cc3)n(C)c2n1` [Example 01-036, propan-2-yl 2-{4-[(1R)-1-({4-chloro-1,6-dimethyl-1H-pyrrolo[2,3-b]pyridin-2-yl}formamido)ethyl]benzenesulfonyl}acetate], the pIC50 falls from 5.94 to 5.74 (0.20 log units). The first is the more potent here.

Going from `Cc1cc2c(cc(C(=O)N[C@H](CO)c3ccc(S(=O)(=O)CC(=O)OC(C)C)cc3)n2C)c(Cl)c1F` [Example 01-035, propan-2-yl 2-{4-[(1S)-1-[(4-chloro-5-fluoro-1,6-dimethyl-1H-indol-2-yl)formamido]-2-hydroxyethyl]benzenesulfonyl}acetate] to `Cc1cc2c(cc(C(=O)N[C@H](CO)c3ccc(S(=O)(=O)CC(=O)OC(C)C)cc3)n2C)c(F)c1F` [Example 01-039, propan-2-yl 2-{4-[(1S)-1-[(4,5-difluoro-1,6-dimethyl-1H-indol-2-yl)formamido]-2-hydroxyethyl]benzenesulfonyl}acetate], the pIC50 falls from 6.33 to 5.95 (0.38 log units).

Compared with `CC(C)OC(=O)CS(=O)(=O)c1ccc([C@@H](CO)NC(=O)c2cc3c(Cl)cc(N4CCN(C)CC4)cc3n2C)cc1` [Example 01-040, propan-2-yl 2-{4-[(1S)-1-{[4-chloro-1-methyl-6-(4-methylpiperazin-1-yI)-1H-indol-2-yl]formamido}-2-hydroxyethyl]benzenesulfonyl}acetate], `CC(C)OC(=O)CS(=O)(=O)c1ccc([C@@H](CO)NC(=O)c2cc(-c3ccc(F)cc3)nn2C)cc1` [Example 02-017, propan-2-yl 2-{4-[(1S)-1-{[3-(4-fluorophenyl)-1-methyl-1H-pyrazol-5-yl]formamido}-2-hydroxyethyl]benzenesulfonyl}acetate] is 0.90 log units lower in pIC50: 6.01 for the first, 5.11 for the second. The first is the more potent here.

First: CCOC(=O)CS(=O)(=O)c1ccc([C@@H](C)NC(=O)c2cc(-c3ccccc3)nn2C)cc1 [Example 02-003, ethyl 2-{4-[(1R)-1-[(1-methyl-3-phenyl-1H-pyrazol-5-yl)formamido]ethyl]benzenesulfonyl}acetate]
Second: COC(=O)CS(=O)(=O)c1ccc([C@H](C)NC(=O)c2cc(-c3ccccc3)nn2C)cn1 [Example 02-009, methyl 2-({5-[(1S)-1-[(1-methyl-3-phenyl-1H-pyrazol-5-yl)formamido]ethyl]pyridin-2-yl}sulfonyl)acetate]
The pIC50 of the first is higher: 5.50 for the first, less than 4.00 for the second. The first is the more potent here.

Going from `COC(=O)CS(=O)(=O)c1ccc([C@@H](C)NC(=O)c2cc(-c3cccc4cc[nH]c34)nn2C)cc1` [Example 02-006, methyl 2-{4-[(1R)-1-{[3-(1H-indol-7-yl)-1-methyl-1H-pyrazol-5-yl]formamido}ethyl]benzenesulfonyl}acetate] to `CC(C)OC(=O)CS(=O)(=O)c1ccc([C@@H](C)NC(=O)c2cc(-c3ccc(Cl)c(Cl)c3)nn2C)cc1` [Example 02-014, propan-2-yl 2-{4-[(1R)-1-{[3-(3,4-dichlorophenyl)-1-methyl-1H-pyrazol-5-yl]formamido}ethyl]benzenesulfonyl}acetate], the pIC50 falls from 5.90 to 4.13 (1.77 log units).

Compared with `COc1cc(-c2cc(C(=O)N[C@H](C)c3ccc(S(=O)(=O)CC(=O)OC(C)C)cc3)n(C)n2)ccc1F` [Example 02-012, propan-2-yl 2-{4-[(1R)-1-{[3-(4-fluoro-3-methoxyphenyl)-1-methyl-1H-pyrazol-5-yl]formamido}ethyl]benzenesulfonyl}acetate], `COc1cc(-c2cc(C(=O)N[C@H](C)c3ccc(S(=O)(=O)CC(=O)OC(C)C)cc3)n(C)n2)ccc1Cl` [Example 02-013, propan-2-yl 2-{4-[(1R)-1-{[3-(4-chloro-3-methoxyphenyl)-1-methyl-1H-pyrazol-5-yl]formamido}ethyl]benzenesulfonyl}acetate] is 0.22 log units lower in pIC50: 5.43 for the first, 5.21 for the second.

Going from `Cc1cc(-c2cc(C(=O)N[C@H](C)c3ccc(S(=O)(=O)CC(=O)OC(C)C)cc3)n(C)n2)ccc1F` [Example 02-015, propan-2-yl 2-{4-[(1R)-1-{[3-(4-fluoro-3-methylphenyl)-1-methyl-1H-pyrazol-5-yl]formamido}ethyl]benzenesulfonyl}acetate] to `CC(C)OC(=O)CS(=O)(=O)c1ccc([C@@H](C)NC(=O)c2cc(-c3ccc(F)c(F)c3)nn2C)cc1` [Example 02-016, propan-2-yl 2-{4-[(1R)-1-{[3-(3,4-difluorophenyl)-1-methyl-1H-pyrazol-5-yl]formamido}ethyl]benzenesulfonyl}acetate], the pIC50 falls from 5.26 to less than 4.70.
